Where a name gives a salt, the structure may show the parent alone. Read-outs that look alike come from different tables or passages of the source. Bounds are passed on as bounds.

The target of experiment [1] is T1, Rat recombinant PDE10A (rPDE10A2) (Rattus norvegicus, UniProt Q9QYJ6).
T1 construct: inferred from the Ni metal chelate purification; made in house; host or cells: Sf9 insect cells (baculovirus)
T1 sequence (Q9QYJ6 1-794): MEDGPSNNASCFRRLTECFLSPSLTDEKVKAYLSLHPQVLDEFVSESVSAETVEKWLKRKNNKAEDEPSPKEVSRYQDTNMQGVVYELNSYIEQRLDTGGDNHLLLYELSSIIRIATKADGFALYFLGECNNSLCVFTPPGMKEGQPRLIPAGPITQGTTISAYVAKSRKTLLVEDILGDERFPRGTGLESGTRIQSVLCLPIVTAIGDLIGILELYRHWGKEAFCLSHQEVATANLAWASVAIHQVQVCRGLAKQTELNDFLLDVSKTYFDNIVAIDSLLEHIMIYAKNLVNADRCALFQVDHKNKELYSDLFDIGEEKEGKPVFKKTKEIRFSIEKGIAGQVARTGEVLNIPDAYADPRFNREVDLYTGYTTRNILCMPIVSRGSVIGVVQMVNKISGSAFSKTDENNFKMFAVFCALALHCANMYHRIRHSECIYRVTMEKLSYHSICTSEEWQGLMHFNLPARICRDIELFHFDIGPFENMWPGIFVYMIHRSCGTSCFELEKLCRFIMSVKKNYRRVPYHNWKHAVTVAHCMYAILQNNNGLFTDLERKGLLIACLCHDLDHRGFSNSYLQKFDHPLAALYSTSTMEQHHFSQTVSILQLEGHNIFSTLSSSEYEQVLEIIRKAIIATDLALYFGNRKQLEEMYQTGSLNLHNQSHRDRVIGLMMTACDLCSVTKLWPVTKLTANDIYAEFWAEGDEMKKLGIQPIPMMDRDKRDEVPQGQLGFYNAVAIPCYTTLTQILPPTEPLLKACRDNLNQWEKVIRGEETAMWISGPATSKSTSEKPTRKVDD
The experiment can be described thus: In vitro assay PDE10A (SPA, 3H-cAMP). The class given is biochemical. In a few lines:
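Scintillation proximity read-out (cpm) of 3H-cAMP hydrolysis after 60 min at room temperature, with enzyme-free blanks and 1% DMSO controls. Enzyme was Sf9-expressed, Ni-sepharose-purified rat rPDE10A2; substrate 60 nM cAMP with tracer, buffer Tris pH 7.8 containing MgCl2 and EGTA.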

A further experiment addresses T2, PDE10 (Rattus norvegicus, UniProt Q9QYJ6).
T2 construct: from tissue; host or cells: rat brain sections, striatum (in vivo dosing, ex vivo autoradiography)
T2 sequence (Q9QYJ6 1-794): T1 sequence (Q9QYJ6 1-794)
Description: PDE10 occupancy ([3H]-MP-10, striatum). The class given is in vivo. As to conditions: for receptor occupancy at 10 mg/kg: rat, single dose 10 mg/kg. How it is done: Dose-response or single dose experiments were performed to measure PDE10 occupancy 1 hour after subcutaneous (s.c.) or oral (p.o.) administration. Male Wistar rats (200 g) were treated by s.c. or p.o. administration of various PDE10 inhibitors. The PDE10 radioligand [^3H]-MP-10 (10 μCi/animal) was injected intravenously (i.v.) 30 minutes before sacrifice. Brains were immediately removed from the skull and rapidly frozen. Twenty μm-thick brain sections were cut using a cryostat-microtome, thaw-mounted on microscope slides and loaded in a β-imager to quantify PDE10 occupancy in the striatum.

Experiment [2] concerns the target other members of the PDE family (Homo sapiens, UniProt O00408). The experiment can be described thus: In vitro PDE selectivity assay (SPA), other members of the PDE family (protocols in Table A). The class given is biochemical. As to conditions: hPDE2A; read-out: PDE 2A (expressed as pIC50) (converted). The method, then: Rat recombinant PDE10A (rPDE10A2) was expressed in Sf9 cells using a recombinant rPDE10A baculovirus construct. Cells were harvested after 48 h of infection and the rPDE10A protein was purified by metal chelate chromatography on Ni-sepharose 6FF. Tested compounds were dissolved and diluted in 100% DMSO to a concentration 100 fold of the final concentration in the assay. Compound dilutions (0.4 μl) were added in 384 well plates to 20 μl of incubation buffer (50 mM Tris pH 7.8, 8.3 mM MgCl2, 1.7 mM EGTA). 10 μl of rPDE10A enzyme in incubation buffer was added and the reaction was started by addition of 10 μl substrate to a final concentration of 60 nM cAMP and 0.008 μCi ^3H-cAMP. The reaction was incubated for 60 minutes at room temperature. After incubation, the reaction was stopped with 20 μl of stop solution consisting of 17.8 mg/ml PDE SPA (scintillation proximity assay) beads. After sedimentation of the beads during 30 minutes the radioactivity was measured in a Perkin Elmer Topcount scintillation counter and results were expressed as cpm. For blanc values the enzyme was omitted from the reaction and replaced by incubation buffer. Control values were obtained by addition of a final concentration of 1% DMSO instead of compound. The same assay principle is applied for the measurement of the affinity of the compound for other members of the PDE family with appropriate modifications in incubation buffer, substrate concentration, incubation time and stop solution. An overview of the different protocols is presented in table A. A best fit curve is fitted by a minimum sum of squares method to the plot of % of control value substracted with blanc value versus compound concentration and the half maximal inhibitory concentration (IC50) value is derived from this curve.
The compounds of the invention are generally selective for PDE10 compared to other PDEs and there are a few that also have affinity for PDE1B1, 4D3 and 5A3.

Experiment [3] relates to apomorphine-induced stereotypy in rats. Description: Apomorphine-induced stereotypy in rats (APO). The class given is in vivo. The following applies: Rattus norvegicus. How it is done:
Apomorphine (1.0 mg/kg, i.v.)-induced stereotypy (compulsive sniffing, licking, chewing) was scored every 5 min over the first hour after injection of apomorphine, following a 1 hour interval pre-treatment with the test compound. The score system was: (3) pronounced, (2) moderate, (1) slight, and (0) absent.

The mark [4] stands for this setting: pIC50 corresponds to the −log IC50 expressed in mol/L, read-out: PDE10A2 pIC50 (converted).
Where [5] appears, read: Table 4 in vitro selectivity, read-out: PDE 10A2 (expressed as pIC50) (converted).
[6] abbreviates: dose at which 50% of the tested animals show the effect, ≧: active in 30% of the animals at the indicated dose, ≦: active in 60%.
[7] abbreviates: n.d.: found not active at threshold dose 2.5 mg/kg or 10 mg/kg (a), not further tested.
Setting [8] is: sc, subcutaneous, read-out: SD sc % occupancy at 10 mg/kg.
The mark [9] stands for this setting: po, * compound not soluble, tested orally as a suspension, ≧: active in 30% of the animals at the indicated dose, ≦: active in 60%.

other members of the PDE family, sequence (O00408 whole entry): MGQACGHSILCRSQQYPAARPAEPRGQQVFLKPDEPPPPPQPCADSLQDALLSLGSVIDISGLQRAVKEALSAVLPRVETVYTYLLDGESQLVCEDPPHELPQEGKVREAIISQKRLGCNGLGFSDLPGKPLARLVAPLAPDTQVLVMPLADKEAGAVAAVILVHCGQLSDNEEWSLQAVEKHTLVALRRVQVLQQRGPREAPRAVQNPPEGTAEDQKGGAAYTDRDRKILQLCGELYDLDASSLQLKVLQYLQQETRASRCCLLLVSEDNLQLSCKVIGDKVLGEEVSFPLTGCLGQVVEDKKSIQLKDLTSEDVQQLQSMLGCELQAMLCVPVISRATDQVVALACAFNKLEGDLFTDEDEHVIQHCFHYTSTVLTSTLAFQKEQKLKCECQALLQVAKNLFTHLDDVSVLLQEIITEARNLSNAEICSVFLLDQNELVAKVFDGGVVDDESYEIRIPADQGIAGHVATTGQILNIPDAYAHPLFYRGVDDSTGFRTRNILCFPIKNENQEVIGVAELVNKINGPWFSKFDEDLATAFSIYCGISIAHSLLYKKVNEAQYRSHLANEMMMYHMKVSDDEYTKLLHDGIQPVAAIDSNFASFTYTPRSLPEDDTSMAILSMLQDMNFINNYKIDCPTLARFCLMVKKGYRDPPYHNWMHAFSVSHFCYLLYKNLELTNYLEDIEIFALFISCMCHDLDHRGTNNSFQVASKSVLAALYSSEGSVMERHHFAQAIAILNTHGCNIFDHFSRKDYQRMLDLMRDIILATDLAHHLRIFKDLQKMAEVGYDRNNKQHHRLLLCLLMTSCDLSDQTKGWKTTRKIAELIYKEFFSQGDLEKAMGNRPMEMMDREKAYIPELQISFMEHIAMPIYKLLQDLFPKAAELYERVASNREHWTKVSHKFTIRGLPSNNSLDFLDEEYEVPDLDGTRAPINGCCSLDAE

Consider `COCCOc1ccc(-c2c(C)nc3c(-c4ccncc4)ccnn23)cn1` [compound 21a, 3-[6-(2-methoxyethoxy)-3-pyridinyl]-2-methyl-8-(4-pyridinyl)-imidazo[1,2-b]pyridazine hydrochloride salt], for which the IC50 in experiment [1] (setting [4]) was 151 nM. In addition, at PDE10 (dose response, oral administration), the “PDE10 in vivo occupancy ED50 po” value is 14 mg/kg. For the same compound, the “PDE10 in vivo occupancy ED50 sc” value at PDE10 (dose response, subcutaneous administration) is 2.6 mg/kg.

Usually ED50 stands for the midpoint of the dose-response relation. Read a high ED50 as weaker potency. Regarding `COC(C)(C)Cc1ccc(-c2c(C3CC3)nc3c(-c4ccncc4)ccnn23)cn1` [compound 50, 2-cyclopropyl-3-[6-(2-methoxy-2-methylpropyl)-3-pyridinyl]-8-(4-pyridinyl)-imidazo[1,2-b]pyridazine], the IC50 in experiment [1] (setting [5]) is 14.5 nM; in experiment [1] (setting [4]), 14.5 nM; in experiment [2] it was 6.92 µM. The same compound had a 50% effective dose (ED50) in experiment [3] (setting [6]) of 0.8 mg/kg.

`CC(C)(O)Cc1ccc(-c2c(C3CC3)nc3c(N4CCOCC4)ccnn23)cn1` [compound 54, 5-[2-cyclopropyl-8-(4-morpholinyl)imidazo[1,2-b]pyridazin-3-yl]-α,α-dimethyl-2-pyridineethanol]: the IC50 was 20.9 nM in experiment [1] (setting [5]), 20.9 nM in experiment [1] (setting [4]) and over 10 µM in experiment [2]. In addition, the median effective dose (ED50) in experiment [3] (setting [6]) worked out at 1.2 mg/kg.

Regarding `Cc1nc2c(N3CCOCC3)ccnn2c1-c1ccc(OCC(F)(F)F)nc1` [compound 62, 2-methyl-8-(4-morpholinyl)-3-[6-(2,2,2-trifluoroethoxy)-3-pyridinyl]-imidazo[1,2-b]pyridazine], in experiment [1] (setting [4]), the IC50 was 257 nM. Also, the median effective dose (ED50) in experiment [3] (po, n.d.: found not active at threshold dose 2.5 mg/kg or 10 mg/kg (a), * not soluble, tested orally as a suspension) is over 2.5 mg/kg. In addition, the receptor occupancy at 10 mg/kg at PDE10 (oral, read-out: SD po % occupancy at 10 mg/kg) was determined as 38%.

As to `Cc1nc2c(N3CCOCC3)ccnn2c1-c1ccc(OCC2CC2)nc1` [compound 65, 3-[6-(cyclopropylmethoxy)-3-pyridinyl]-2-methyl-8-(4-morpholinyl)-imidazo[1,2-b]pyridazine], in experiment [1] (setting [4]), the IC50 was 162 nM. Besides, in experiment [3] (setting [7]), the ED50 is over 10 mg/kg. The receptor occupancy at 10 mg/kg at PDE10 (setting [8]) stood at 17%.

On to `Cc1nc2c(N3CCOCC3)ccnn2c1-c1ccc(OC(C)C)nc1` [compound 66, 2-methyl-3-[6-(1-methylethoxy)-3-pyridinyl]-8-(4-morpholinyl)-imidazo[1,2-b]pyridazine], for which, in experiment [1] (setting [4]), the IC50 was 178 nM. Further, the ED50 in experiment [3] (setting [7]) was over 10 mg/kg. The receptor occupancy at 10 mg/kg at PDE10 (setting [8]) came out at 29%.

For the compound `Cc1nc2c(N3CCOCC3)ccnn2c1-c1ccnc(OC(C)C)c1` [compound 67, 2-methyl-3-[2-(1-methylethoxy)-4-pyridinyl]-8-(4-morpholinyl)-imidazo[1,2-b]pyridazine], in experiment [1] (setting [4]), the IC50 is 87.1 nM. The same compound yielded an ED50 in experiment [3] (setting [7]) of over 10 mg/kg. Further, on PDE10 (setting [8]), the receptor occupancy at 10 mg/kg was found to be 1%.

Regarding `Cc1cc(N2CCOCC2)c2nc(C)c(-c3ccc(N4CCOCC4)nc3)n2n1` [compound 68, 2,6-dimethyl-8-(4-morpholinyl)-3-[6-(4-morpholinyl)-3-pyridinyl]-imidazo[1,2-b]pyridazine], the IC50 was 158 nM in experiment [1] (setting [5]), 158 nM in experiment [1] (setting [4]) and over 10 µM in experiment [2]. Also, in experiment [3] (setting [9]), the ED50 was at least 2.5 mg/kg.

For `Cc1cc(-c2ccncc2)c2nc(C3CC3)c(-c3ccc(N4CCOCC4)nc3)n2n1` [compound 71, 2-cyclopropyl-6-methyl-3-[6-(4-morpholinyl)-3-pyridinyl]-8-(4-pyridinyl)-imidazo[1,2-b]pyridazine], the values for the IC50 in experiment [1] (setting [5]), in experiment [1] (setting [4]) and in experiment [2] were 83.2 nM, 83.2 nM and 2.29 µM, respectively. For the same compound, the ED50 in experiment [3] (setting [9]) was at least 2.5 mg/kg.

In the case of `COCCOc1ccc(-c2c(C3CC3)nc3c(-c4ccncc4)cc(C)nn23)cn1` [compound 72, 2-cyclopropyl-3-[6-(2-methoxyethoxy)-3-pyridinyl]-6-methyl-8-(4-pyridinyl)-imidazo[1,2-b]pyridazine], the values for the IC50 in experiment [1] (setting [5]), in experiment [1] (setting [4]) and in experiment [2] were 123 nM, 123 nM and 1.05 µM, respectively. Further, the ED50 in experiment [3] (setting [9]) is at least 2.5 mg/kg.

As to `COCCn1cc(-c2c(C)nc3c(-c4ccncc4)ccnn23)cn1` [compound 114, 3-[1-(2-methoxyethyl)-1H-pyrazol-4-yl]-2-methyl-8-(4-pyridinyl)-imidazo[1,2-b]pyridazine], in experiment [1] (setting [4]), the IC50 was 52.5 nM. The compound also came in with a 50% effective dose (ED50) in experiment [3] (setting [7]) of over 2.5 mg/kg. In addition, the receptor occupancy at 10 mg/kg on PDE10 (setting [8]) amounted to 72%.

Turning to `COCCn1cc(-c2c(C(C)C)nc3c(-c4ccncc4)ccnn23)cn1` [compound 121, 3-[1-(2-methoxyethyl)-1H-pyrazol-4-yl]-2-(1-methylethyl)-8-(4-pyridinyl)-imidazo[1,2-b]pyridazine], the IC50 in experiment [1] (setting [4]) is 234 nM. In addition, the median effective dose (ED50) in experiment [3] (setting [7]) is over 10 mg/kg. Also, the receptor occupancy at 10 mg/kg at PDE10 (setting [8]) turned out to be 0%.

Regarding `Cc1nc2c(N3CCOCC3)ccnn2c1-c1cnn(CC(F)(F)C2CC2)c1` [compound 128, 3-[1-(2-cyclopropyl-2,2-difluoroethyl)-1H-pyrazol-4-yl]-2-methyl-8-(4-morpholinyl)-imidazo[1,2-b]pyridazine], in experiment [1] (setting [4]), the IC50 was 50.1 nM. In addition, in experiment [3] (setting [7]), the ED50 is over 10 mg/kg. For the same compound, the receptor occupancy at 10 mg/kg on PDE10 (setting [8]) stood at 40%.

With `COCCn1cc(-c2c(C)nc3c(-c4ccncc4)cc(C(F)(F)F)nn23)cn1` [compound 129, 3-[1-(2-methoxyethyl)-1H-pyrazol-4-yl]-2-methyl-8-(4-pyridinyl)-6-(trifluoromethyl)-imidazo[1,2-b]pyridazine], the figures for the IC50 in experiment [1] (setting [5]), in experiment [1] (setting [4]) and in experiment [2] were 2630 nM, 2630 nM and over 10 µM, respectively.

In the case of `COCCn1cc(-c2c(C)nc3c(N4CCCC4)ccnn23)cn1` [compound 136, 3-[1-(2-methoxyethyl)-1H-pyrazol-4-yl]-2-methyl-8-(1-pyrrolidinyl)-imidazo[1,2-b]pyridazine], the IC50 in experiment [1] (setting [5]) was 525 nM; in experiment [1] (setting [4]), 525 nM; in experiment [2], over 10 µM.

Consider `c1cc(N2CCOCC2)c2ncc(-c3ccc(N4CCOCC4)nc3)n2n1` [compound 144, 8-(4-morpholinyl)-3-[6-(4-morpholinyl)-3-pyridinyl]-imidazo[1,2-b]pyridazine], for which the IC50 in experiment [1] (setting [5]) was 324 nM; in experiment [1] (setting [4]), 324 nM; in experiment [2] it was over 10 µM.

The record behind these values is patent US20120220581A1, “IMIDAZO[1,2-b]PYRIDAZINE DERIVATIVES AND THEIR USE AS PDE10 INHIBITORS” (Janssen-Cilag, S.A., priority 2009, published 2012).
